From US20230094870A1, “CHEMILU[…] FOR TUBERCULOSIS” (priority 2020, published 2023)
Non-standard residues stand in square brackets, D forms with d. Residues, ends and D or L forms follow the SMILES beside them. *: point of attachment. X1 = COC1(c2ccc(/C=C/C(=O)O)c(OCc3ccc(N*)cc3)c2Cl)OOC12C1CC3CC(C1)CC2C3; Phe(4-Cl) = N[C@@H](Cc1ccc(Cl)cc1)C(=O)O; Igl = N[C@H](C(=O)O)C1Cc2ccccc2C1

Tests used:
Mtb strain H37Rv = assay type: cell-based, Mycobacterium tuberculosis; settings: Mtb H37Rv incubated with FLASH for 1 h
recombinant Hip1 enzyme = target: T1, recombinant Hip1 enzyme (Mycobacterium tuberculosis, UniProt P9WHR3); test: Hip1 activity measurement with FLASH probe (chemiluminescence); assay type: biochemical; settings: total integrated luminescence after 1 h
T1 construct: Recombinant Hip1 was purified as previously described (Lentz et al., 2016); made in house
T1 sequence (P9WHR3 31-520): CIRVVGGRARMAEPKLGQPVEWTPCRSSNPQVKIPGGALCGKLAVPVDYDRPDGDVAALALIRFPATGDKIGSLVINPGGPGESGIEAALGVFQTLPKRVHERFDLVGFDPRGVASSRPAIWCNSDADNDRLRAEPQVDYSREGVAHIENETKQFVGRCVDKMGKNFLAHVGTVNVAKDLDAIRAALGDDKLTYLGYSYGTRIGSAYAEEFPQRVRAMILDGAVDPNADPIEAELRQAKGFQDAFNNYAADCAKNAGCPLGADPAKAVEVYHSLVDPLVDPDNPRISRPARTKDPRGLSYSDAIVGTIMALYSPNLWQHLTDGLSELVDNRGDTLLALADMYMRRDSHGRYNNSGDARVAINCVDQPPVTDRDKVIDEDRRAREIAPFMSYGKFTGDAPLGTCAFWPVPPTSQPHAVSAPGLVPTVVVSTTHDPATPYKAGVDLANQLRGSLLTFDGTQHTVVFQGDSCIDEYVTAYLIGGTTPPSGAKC

Mtb strain mc^26020 = assay type: cell-based, Mycobacterium tuberculosis; settings: Mtb mc^26020 incubated with FLASH for 1 h
[1] = tested on: nontuberculous mycobacteria (NTM); test: Detection of Mtb versus nontuberculous mycobacteria cells with FLASH probe; settings: IL values for millions or thousands of cells of each species, 1 h with FLASH

SMILES: COC1(c2ccc(/C=C/C(=O)O)c(OCc3ccc(NC(=O)[C@H](CC(C)C)NC(=O)[C@H](CCCCN)NC(=O)[C@H](Cc4ccc(Cl)cc4)NC(=O)[C@@H](NC(C)=O)C4Cc5ccccc5C4)cc3)c2Cl)OOC12C1CC3CC(C1)CC2C3 (stereo partly shown) [FLASH] (Ac-[Igl][Phe(4-Cl)]KL-X1)
- LOD, lowest number of bacterial cells that can be detected by the probe (Mtb strain H37Rv): ≤ 100,000 cells
- limit of detection (LOD) of Hip1 enzyme (recombinant Hip1 enzyme): ~2 pmol
- LOD, lowest number of bacterial cells that can be detected by the probe (Mtb strain mc^26020): ≤ 100,000 cells
- sensitivity to Mtb compared to nontuberculous mycobacteria [1]: more sensitive to Mtb compared to common nontuberculous mycobacteria
